Source: ChEMBL document CHEMBL3739348, “Novel pyrrole derivatives as selective CHK1 inhibitors: design, regioselective synthesis and molecular modeling” (Medchemcomm, 2015)

Columns and labels:
[1] = target: Vascular endothelial growth factor receptor 2 (Homo sapiens, UniProt P35968); experiment: Inhibition of VEGFR-2 (unknown origin) at 30 uM by microfluidic assay relative to control
[2] = target: Proto-oncogene tyrosine-protein kinase Src (Homo sapiens) (UniProt P12931); experiment: Inhibition of SRC (unknown origin) at 30 uM by microfluidic assay relative to control
Sequence of Proto-oncogene tyrosine-protein kinase Src (Homo sapiens) (P12931 2-536 limits assumed): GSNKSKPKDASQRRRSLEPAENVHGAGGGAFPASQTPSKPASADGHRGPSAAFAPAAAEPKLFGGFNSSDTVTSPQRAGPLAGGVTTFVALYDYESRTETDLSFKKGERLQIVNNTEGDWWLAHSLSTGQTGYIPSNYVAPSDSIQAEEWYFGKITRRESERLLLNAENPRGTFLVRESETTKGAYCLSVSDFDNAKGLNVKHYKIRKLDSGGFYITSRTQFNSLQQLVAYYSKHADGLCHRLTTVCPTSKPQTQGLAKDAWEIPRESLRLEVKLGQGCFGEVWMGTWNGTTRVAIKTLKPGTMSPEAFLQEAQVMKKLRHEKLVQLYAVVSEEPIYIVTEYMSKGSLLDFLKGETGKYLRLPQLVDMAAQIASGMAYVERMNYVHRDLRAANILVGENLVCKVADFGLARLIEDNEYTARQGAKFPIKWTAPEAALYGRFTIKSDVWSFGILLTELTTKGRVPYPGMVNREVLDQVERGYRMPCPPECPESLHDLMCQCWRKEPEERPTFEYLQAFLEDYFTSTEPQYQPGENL

[3] = target: T1, Serine/threonine-protein kinase Chk1 (Homo sapiens) (UniProt O14757); experiment: Inhibition of CHK1 (unknown origin) at 30 uM by microfluidic assay relative to control
T1 sequence (whole entry): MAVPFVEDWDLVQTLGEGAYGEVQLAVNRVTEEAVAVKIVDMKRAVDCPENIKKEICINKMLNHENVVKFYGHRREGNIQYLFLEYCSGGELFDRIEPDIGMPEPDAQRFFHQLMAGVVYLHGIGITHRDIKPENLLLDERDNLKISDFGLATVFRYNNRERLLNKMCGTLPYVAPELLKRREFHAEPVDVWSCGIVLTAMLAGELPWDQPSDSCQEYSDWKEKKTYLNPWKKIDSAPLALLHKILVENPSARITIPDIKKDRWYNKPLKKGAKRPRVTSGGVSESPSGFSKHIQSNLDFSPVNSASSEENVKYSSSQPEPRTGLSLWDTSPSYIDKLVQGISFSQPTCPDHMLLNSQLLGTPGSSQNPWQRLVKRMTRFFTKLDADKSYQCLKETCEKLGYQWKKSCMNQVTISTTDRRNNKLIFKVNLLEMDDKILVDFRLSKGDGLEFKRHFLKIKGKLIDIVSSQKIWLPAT

[4] = target: Mitogen-activated protein kinase 3 (Homo sapiens) (UniProt P27361); experiment: Inhibition of Erk1 (unknown origin) at 30 uM by microfluidic assay relative to control
Sequence of Mitogen-activated protein kinase 3 (Homo sapiens) (P27361 whole entry): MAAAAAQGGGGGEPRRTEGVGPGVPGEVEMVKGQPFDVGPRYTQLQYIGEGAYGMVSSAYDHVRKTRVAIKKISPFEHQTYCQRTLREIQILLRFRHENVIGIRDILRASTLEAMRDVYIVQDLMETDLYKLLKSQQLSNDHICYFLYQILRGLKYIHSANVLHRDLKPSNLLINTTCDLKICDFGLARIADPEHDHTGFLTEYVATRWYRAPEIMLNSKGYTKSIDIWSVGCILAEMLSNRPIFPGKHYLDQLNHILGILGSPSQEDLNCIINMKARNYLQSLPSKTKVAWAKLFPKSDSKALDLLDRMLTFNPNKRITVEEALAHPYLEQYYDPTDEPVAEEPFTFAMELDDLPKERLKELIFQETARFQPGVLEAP

[5] = target: Epidermal growth factor receptor (Homo sapiens, UniProt P00533); experiment: Inhibition of EGFR (unknown origin) by microfluidic assay relative to control
Sequence of Epidermal growth factor receptor (P00533 whole entry): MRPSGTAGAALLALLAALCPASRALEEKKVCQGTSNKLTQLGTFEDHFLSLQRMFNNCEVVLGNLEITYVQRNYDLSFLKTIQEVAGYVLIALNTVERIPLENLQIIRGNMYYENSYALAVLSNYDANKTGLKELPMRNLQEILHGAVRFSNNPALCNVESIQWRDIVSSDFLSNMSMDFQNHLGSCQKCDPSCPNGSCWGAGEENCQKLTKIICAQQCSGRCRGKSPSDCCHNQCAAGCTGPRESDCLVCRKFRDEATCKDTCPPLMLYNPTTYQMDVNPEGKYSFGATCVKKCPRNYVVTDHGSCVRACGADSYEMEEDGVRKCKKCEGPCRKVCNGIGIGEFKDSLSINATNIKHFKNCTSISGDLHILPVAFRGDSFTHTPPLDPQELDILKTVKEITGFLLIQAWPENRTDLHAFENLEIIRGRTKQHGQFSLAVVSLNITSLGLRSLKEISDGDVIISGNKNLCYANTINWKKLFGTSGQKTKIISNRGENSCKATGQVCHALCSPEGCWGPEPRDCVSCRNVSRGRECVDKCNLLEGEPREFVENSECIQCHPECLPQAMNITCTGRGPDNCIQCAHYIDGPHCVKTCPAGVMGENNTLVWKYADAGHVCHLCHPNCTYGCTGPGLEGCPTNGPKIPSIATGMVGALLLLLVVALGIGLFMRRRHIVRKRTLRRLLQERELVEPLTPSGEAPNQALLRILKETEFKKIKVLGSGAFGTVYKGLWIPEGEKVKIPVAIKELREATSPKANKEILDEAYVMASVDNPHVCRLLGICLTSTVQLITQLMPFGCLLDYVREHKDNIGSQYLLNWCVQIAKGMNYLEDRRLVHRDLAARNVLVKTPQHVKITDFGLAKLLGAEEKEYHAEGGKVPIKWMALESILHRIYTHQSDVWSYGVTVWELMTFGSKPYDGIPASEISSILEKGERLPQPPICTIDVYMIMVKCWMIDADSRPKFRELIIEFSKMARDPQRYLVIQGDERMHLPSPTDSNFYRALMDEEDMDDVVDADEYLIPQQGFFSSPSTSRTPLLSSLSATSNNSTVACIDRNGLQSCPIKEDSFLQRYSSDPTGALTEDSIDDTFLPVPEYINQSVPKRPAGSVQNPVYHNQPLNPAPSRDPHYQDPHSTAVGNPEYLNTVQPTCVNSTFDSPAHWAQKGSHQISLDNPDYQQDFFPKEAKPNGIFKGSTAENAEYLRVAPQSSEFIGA

[6] = target: Glycogen synthase kinase-3 (Homo sapiens) (UniProt P49840+P49841); experiment: Inhibition of GSK3 (unknown origin) at 30 uM by microfluidic assay relative to control; assay type: protein assay
Sequence of Glycogen synthase kinase-3 (Homo sapiens) (P49840 whole entry, looked up): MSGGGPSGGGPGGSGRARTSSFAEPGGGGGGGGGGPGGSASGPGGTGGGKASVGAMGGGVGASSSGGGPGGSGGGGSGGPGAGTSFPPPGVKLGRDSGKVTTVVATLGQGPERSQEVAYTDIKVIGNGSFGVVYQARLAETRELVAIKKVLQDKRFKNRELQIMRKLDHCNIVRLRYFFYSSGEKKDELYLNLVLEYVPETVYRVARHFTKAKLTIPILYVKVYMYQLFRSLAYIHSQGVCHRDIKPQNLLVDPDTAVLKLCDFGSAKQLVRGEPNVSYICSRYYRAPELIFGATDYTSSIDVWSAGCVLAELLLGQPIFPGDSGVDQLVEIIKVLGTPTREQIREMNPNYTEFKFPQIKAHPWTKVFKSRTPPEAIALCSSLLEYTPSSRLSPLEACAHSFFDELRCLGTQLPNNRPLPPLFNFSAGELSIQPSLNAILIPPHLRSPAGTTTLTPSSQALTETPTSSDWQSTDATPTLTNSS
Sequence of Glycogen synthase kinase-3 (Homo sapiens) (P49841 whole entry, looked up): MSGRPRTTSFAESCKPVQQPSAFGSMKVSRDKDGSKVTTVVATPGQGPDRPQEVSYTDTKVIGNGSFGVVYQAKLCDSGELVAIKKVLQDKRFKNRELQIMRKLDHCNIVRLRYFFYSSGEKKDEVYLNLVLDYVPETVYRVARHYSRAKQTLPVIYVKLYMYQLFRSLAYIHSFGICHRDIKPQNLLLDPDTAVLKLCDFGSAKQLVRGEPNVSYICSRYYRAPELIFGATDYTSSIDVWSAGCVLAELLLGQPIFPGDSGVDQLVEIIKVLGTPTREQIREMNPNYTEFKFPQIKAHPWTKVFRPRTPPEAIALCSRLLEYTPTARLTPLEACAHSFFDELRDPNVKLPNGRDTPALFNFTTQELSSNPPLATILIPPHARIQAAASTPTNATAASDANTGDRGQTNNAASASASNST

[7] = organism: Homo sapiens; experiment: Selectivity index, ratio of IC50 for EGFR (unknown origin) to IC50 for CHK1 (unknown origin)
[8] = organism: Homo sapiens; experiment: Selectivity index, ratio of IC50 for VEGFR-2 (unknown origin) to IC50 for CHK1 (unknown origin)
[9] = target: T2, MAP kinase-activated protein kinase 5 (Homo sapiens) (UniProt Q8IW41); experiment: Inhibition of MAPKAPK5 (unknown origin) at 30 uM by microfluidic assay relative to control
T2 sequence (whole entry): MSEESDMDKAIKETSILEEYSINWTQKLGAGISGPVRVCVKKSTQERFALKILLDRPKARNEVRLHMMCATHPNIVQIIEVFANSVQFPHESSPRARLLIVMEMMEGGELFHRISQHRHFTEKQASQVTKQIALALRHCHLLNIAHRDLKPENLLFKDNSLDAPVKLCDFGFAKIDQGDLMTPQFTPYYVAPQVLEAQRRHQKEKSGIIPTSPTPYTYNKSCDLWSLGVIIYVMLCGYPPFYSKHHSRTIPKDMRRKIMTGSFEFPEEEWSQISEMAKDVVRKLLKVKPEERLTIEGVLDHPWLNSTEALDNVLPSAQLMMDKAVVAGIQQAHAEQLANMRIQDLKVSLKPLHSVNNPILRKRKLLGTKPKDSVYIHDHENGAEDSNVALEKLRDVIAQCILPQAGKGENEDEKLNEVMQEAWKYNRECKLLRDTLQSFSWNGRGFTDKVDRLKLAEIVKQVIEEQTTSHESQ

[10] = target: Tyrosine-protein kinase Lyn (Homo sapiens) (UniProt P07948); experiment: Inhibition of LYN (unknown origin) at 30 uM by microfluidic assay relative to control
Sequence of Tyrosine-protein kinase Lyn (Homo sapiens) (P07948 2-512 limits assumed): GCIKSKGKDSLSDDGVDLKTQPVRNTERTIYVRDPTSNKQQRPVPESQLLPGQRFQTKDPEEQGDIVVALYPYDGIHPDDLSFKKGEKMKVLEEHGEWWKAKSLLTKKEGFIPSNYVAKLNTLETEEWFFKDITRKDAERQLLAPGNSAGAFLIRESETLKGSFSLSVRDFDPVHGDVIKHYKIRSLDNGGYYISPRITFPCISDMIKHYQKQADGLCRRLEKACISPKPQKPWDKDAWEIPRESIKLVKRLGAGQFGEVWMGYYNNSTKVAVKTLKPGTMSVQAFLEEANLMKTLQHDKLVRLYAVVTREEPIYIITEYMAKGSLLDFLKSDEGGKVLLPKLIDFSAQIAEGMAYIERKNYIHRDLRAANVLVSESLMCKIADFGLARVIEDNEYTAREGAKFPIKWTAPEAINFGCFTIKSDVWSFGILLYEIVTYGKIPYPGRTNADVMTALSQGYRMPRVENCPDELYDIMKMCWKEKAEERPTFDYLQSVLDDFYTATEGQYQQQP

[11] = target: Protein kinase C (PKC) (Homo sapiens) (UniProt O94806+P41743+P17252+P05129+Q05655+P05771+Q05513+Q02156+P24723+Q15139+Q04759); experiment: Inhibition of PKC (unknown origin) at 30 uM by microfluidic assay relative to control

Sequence of Vascular endothelial growth factor receptor 2 (P35968 whole entry): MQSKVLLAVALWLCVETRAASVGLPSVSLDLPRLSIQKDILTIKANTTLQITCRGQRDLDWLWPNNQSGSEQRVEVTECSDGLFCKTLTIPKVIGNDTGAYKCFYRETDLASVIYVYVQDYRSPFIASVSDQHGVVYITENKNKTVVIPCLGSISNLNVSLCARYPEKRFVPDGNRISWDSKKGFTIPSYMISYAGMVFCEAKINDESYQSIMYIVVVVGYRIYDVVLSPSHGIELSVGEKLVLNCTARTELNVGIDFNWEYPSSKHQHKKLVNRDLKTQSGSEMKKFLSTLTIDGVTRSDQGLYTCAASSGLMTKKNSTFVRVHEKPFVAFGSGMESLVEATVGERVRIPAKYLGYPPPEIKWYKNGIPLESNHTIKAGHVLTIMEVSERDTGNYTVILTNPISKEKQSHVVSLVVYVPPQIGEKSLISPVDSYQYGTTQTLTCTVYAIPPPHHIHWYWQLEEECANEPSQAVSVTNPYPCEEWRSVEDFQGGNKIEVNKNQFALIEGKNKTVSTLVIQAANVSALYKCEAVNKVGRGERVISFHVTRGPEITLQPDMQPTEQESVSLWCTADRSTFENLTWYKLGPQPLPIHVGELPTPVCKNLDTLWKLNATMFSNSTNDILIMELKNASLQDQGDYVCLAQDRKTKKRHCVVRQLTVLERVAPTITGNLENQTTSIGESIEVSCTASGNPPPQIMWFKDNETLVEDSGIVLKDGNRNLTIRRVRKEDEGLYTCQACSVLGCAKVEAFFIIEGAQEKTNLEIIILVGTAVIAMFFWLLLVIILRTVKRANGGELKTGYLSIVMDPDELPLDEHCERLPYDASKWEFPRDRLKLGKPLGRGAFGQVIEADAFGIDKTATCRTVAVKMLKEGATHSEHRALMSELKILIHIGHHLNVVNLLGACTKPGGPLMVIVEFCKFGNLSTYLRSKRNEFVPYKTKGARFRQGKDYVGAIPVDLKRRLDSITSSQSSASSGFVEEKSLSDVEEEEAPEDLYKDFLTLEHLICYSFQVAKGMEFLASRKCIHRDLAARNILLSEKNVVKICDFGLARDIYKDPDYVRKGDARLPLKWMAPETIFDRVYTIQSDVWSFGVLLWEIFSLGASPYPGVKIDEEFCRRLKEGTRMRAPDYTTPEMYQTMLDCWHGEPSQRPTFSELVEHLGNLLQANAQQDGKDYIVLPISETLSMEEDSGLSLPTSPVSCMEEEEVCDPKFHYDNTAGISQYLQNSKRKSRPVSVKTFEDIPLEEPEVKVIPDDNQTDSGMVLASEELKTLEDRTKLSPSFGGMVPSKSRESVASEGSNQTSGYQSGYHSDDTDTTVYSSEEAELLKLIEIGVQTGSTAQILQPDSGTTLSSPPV

SMILES | inhibition [1] [%] | inhibition [2] [%] | inhibition [3] [%] | inhibition [4] [%] | IC50 [5] [µM] | inhibition [6] [%] | Ratio IC50 [7] | Ratio IC50 [8] | inhibition [9] [%] | inhibition [10] [%] | inhibition [11] [%]
Cc1[nH]c(-c2ccccc2)c(-c2ccccc2)c1C(=O)c1coc2c1cc(O)c1ccccc12 | 100 | 21 | 96 | 3 | 5.1 | 2 | 16.4 | 14.7 | 54 | 34 | 34
Cc1[nH]c(-c2ccccc2)c(-c2ccccc2)c1-c1nnc(O)c2nn(-c3ccccc3)cc12 | 100 | 23 | 84 | 8 |  | 43 |  |  | 32 | 5 | 63
Cc1[nH]c(-c2ccccc2)c(-c2ccccc2)c1C(=O)c1cn(-c2ccccc2)nc1C(=O)Nc1ccccc1 | 100 | 33 | 80 | 8 |  | 23 |  |  | 54 | 24 | 44
